Assay results: ChEMBL document CHEMBL3046068, “Design, synthesis, and biological activity of certain quinazolinedione derivatives as potent phosphodiestrase4 inhibitors” (Med Chem Res, 2012)

biological target: 3',5'-cyclic-AMP phosphodiesterase 4B (Homo sapiens) (UniProt Q07343); assay: Inhibition of PDE4B (unknown origin) using FAM-cAMP as substrate at 10 uM after 60 min by fluorescence polarization assay
Sequence (Q07343 whole entry): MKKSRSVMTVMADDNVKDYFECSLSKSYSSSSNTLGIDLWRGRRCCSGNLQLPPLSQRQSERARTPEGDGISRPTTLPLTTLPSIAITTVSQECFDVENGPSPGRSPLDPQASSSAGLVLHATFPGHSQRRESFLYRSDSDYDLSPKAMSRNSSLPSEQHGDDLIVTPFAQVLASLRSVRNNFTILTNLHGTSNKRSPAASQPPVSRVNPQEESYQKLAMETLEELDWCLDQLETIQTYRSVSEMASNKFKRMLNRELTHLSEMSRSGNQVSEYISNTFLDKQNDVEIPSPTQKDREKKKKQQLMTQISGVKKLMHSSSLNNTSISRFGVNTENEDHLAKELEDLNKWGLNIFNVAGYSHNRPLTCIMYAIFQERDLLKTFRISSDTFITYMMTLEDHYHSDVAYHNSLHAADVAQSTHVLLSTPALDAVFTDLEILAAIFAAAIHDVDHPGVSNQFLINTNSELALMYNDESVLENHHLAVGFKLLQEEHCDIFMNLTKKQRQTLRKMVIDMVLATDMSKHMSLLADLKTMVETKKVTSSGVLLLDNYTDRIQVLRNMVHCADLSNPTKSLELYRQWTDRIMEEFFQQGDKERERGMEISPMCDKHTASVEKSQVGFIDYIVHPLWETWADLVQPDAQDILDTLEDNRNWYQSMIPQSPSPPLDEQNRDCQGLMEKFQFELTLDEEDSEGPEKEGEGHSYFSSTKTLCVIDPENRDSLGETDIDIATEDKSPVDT

Row | SMILES | inhibition [%]
1 | CCCCn1c(=O)c2ccccc2n(CCCN2CCOCC2)c1=O | 100
2 | CCCCn1c(=O)c2ccccc2n(CCCN2CCCCC2)c1=O | 11
3 | CCCCn1c(=O)c2ccccc2n(CCN(CC)CC)c1=O | 8
4 | CCCCn1c(=O)c2ccccc2n(CC(=O)c2ccccc2)c1=O | 22
5 | CCCCn1c(=O)c2ccccc2n(CC(=O)c2ccc(Cl)cc2)c1=O | 8
6 | CCCCn1c(=O)c2ccccc2n(CCN2CCCCC2)c1=O | 11
7 | CCCCn1c(=O)c2ccccc2n(CCCN(CC)CC)c1=O | 9
8 | CCCCn1c(=O)c2ccccc2n(CCN2CCN(c3ccccc3)CC2)c1=O | 25
9 | CCCCn1c(=O)c2ccccc2n(Cc2ccccc2)c1=O | 56
10 | CCCCn1c(=O)c2ccccc2n(CCN2CCOCC2)c1=O | 17
11 | CCCCn1c(=O)c2ccccc2n(CCCN2CCN(c3ccccc3)CC2)c1=O | 13
